Experimental data reported in the NIST ThermoML archive (doi:10.1021/je400562z).
Numbers after ± are expanded uncertainties.

Settings: for surface tension liquid-gas: Ring tensiometer; for mass density / viscosity: 101.33 kPa, Liquid; for viscosity: Concentric cylinders viscometry

CN(CCO)CCO [N-methyldiethanolamine]
Settings	mass density [kg/m3]	surface tension liquid-gas [mN/m]	viscosity [mPa·s]
303.15 K	1033.8 ± 1.5	37.33 ± 0.7	56.3 ± 1.3
313.15 K	1026.7 ± 1.5	–	34.45 ± 0.85
323.15 K	1018.9 ± 1.4	–	22.93 ± 0.55
333.15 K	–	35.47 ± 0.67	14.99 ± 0.37
